The record followed here is the supplement of paper PMC3493320.

The structures appear in SMILES notation.

For this assay, the system named is NCI-H295R. Nature of the assay: IC50 (antiproliferative, ATP content). The note with it: 48 h. An outline of the steps: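 Compounds were pin-transferred at 8 final concentrations between 0.6 nM and 46 µM onto adrenocortical carcinoma cells (1500 per well, 1536-well plates) that had been cultured overnight in serum-free DMEM with ITS. Plates then stood 48 h at 37 °C, 5% CO2, and ATP was detected by CellTiter-Glo luminescence. IC50 was derived from logistic fits of normalised signal, and compounds giving no concentration response were noted as above the top dose.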
Take `O=C1[C@]([C@](CC4)([H])[C@@]3([H])[C@@](C1)(C)[C@@](CC3)(O)[C@@](CO)=O)([H])[C@](C=C2)(C)C4=CC2=O`: the IC50 (commonly the concentration at which inhibition is half-maximal) is over 46 µM.

For `O=C(N[C@@H](CCCCN)C(N[C@@H](C(O)C)C(N[C@H](C(N[C@@H]([C@@H](O)C)C(N[C@@H](CO)C6=O)=O)=O)CC5=CC=CC=C5)=O)=O)[C@@H](NC([C@@H](NC([C@@H](NC([C@H](CC(N)=O)NC([C@H](CCCCN)NC([C@@H](NC(CNC([C@@H](N)C)=O)=O)CSSC[C@@H]([C@@](O)=O)N6)=O)=O)=O)CC4=CC=CC=C4)=O)CC3=CC=CC=C3)=O)CC1=CNC2=C1C=CC=C2` (some centres undefined), the IC50 is over 46 µM.

`CC=CC1=C(C(=O)O)N2C(=O)[C@@H](NC(=O)[C@H](N)c3ccc(O)cc3)[C@H]2SC1.O` showed an IC50 of over 46 µM.

`Cl.C/C(C)=N\Nc2c(cnc1c2cnn1CC)C(=O)OCC` came in with an IC50 of over 46 µM.

In turn, `NS(=O)(=O)c1cc2c(cc1C(F)(F)F)NCNS2(=O)=O` yielded an IC50 of over 46 µM.

For the compound `O=C1c2c(O)cccc2Cc2cccc(O)c21`, the IC50 is over 46 µM.

With `CCC1(CC)C(=O)NC(=O)N(C)C1=O`, the IC50 was over 46 µM.

On to `CC(C)c1c(CN(C)C(C)Cc2ccccc2)n(C)n(-c2ccccc2)c1=O` (centres undefined), for which the half-maximal inhibitory concentration (IC50) was over 46 µM.

Compound `S=C(S)N1CCNCC1` displayed an IC50 of over 46 µM.

As to `COc1ccc2c3c1O[C@H]1[C@@H](O)C=C[C@H]4[C@@H](C2)NCC[C@@]341`, the IC50 was over 46 µM.

For the compound `CC(=O)Nc1ccc(OCC(O)CNC(C)C)cc1` (centres undefined), the IC50 is over 46 µM.

In turn, `O=C([O-])c1nc(O)nc(O)n1.[K+]` had an IC50 of over 46 µM.

`COc1ccc(C(=O)c2ccccc2)c(O)c1` registered an IC50 of over 46 µM.

In turn, `Cl.Cl.c1ccc(CNCCNCc2ccccc2)cc1` gave a concentration for half-maximal inhibition (IC50) of over 46 µM.

`FC(F)(F)C(F)(F)C(F)(F)C(F)(F)C(F)(F)C(F)(F)C(F)(F)C(F)(F)Br` had an IC50 of over 46 µM.

For the compound `CCCC(O)C(CC)CO` (centres undefined), the 50% inhibitory concentration (IC50) was over 46 µM.

Consider `CCC1Nc2cc(Cl)c(S(N)(=O)=O)cc2S(=O)(=O)N1` (centres undefined), for which the IC50 is over 46 µM.

In turn, `COc1c2occc2c(OC)c2c(=O)cc(C)oc12` gave a half-maximal inhibitory concentration (IC50) of over 46 µM.

In turn, `O=[C@]([C@H]2N(CCC)CCCC2)NC1=C(C)C=CC=C1C.Cl` registered an IC50 of over 46 µM.

In turn, `CCOC(=O)c1c(C)n(C)c2ccc(O)cc12` yielded an IC50 of over 46 µM.

Consider `O=[N+]([O-])/N=C1\NCCN1Cc1ccc(Cl)nc1`, for which the IC50 was over 46 µM.

`CCN(CC)C(=O)N1CCN(C)CC1.O=C(O)CC(O)(CC(=O)O)C(=O)O` showed an IC50 of over 46 µM.

In turn, `Cc1ncc(CSSCc2cnc(C)c(O)c2CO)c(CO)c1O.Cl.Cl` came in with an IC50 of over 46 µM.

Turning to `CC1(C)S[C@@H]2[C@H](/N=C/N3CCCCCC3)C(=O)N2[C@H]1C(=O)O`, the IC50 was over 46 µM.

As for `CC(C)NCC1CCc2cc(CO)c([N+](=O)[O-])cc2N1` (centres undefined), the IC50 was over 46 µM.

As to `CCCCCCCCCCCCCCCC(=O)OCC(COC(=O)CCCCCCCCCCCCCCC)OC(=O)CCCCCCCCCCCCCCC`, the IC50 was over 46 µM.

On to `CC(C)NCC(O)c1ccc(NS(C)(=O)=O)cc1` (centres undefined), for which the half-inhibitory concentration (IC50) is over 46 µM.

For `O=C([O-])CCC/C=C\C[C@@H]1[C@@H](/C=C/[C@@H](O)COc2cccc(Cl)c2)[C@H](O)C[C@@H]1O.[Na+]`, the half-maximal inhibitory concentration (IC50) was over 46 µM.

Consider `CNC1CCCN(c2c(F)cc3c(=O)c(C(=O)O)cn(C4CC4)c3c2OC)C1` (centres undefined), for which the IC50 was over 46 µM.

`Cl.NCCNC(=O)c1ccc(Cl)cn1`: the IC50 is over 46 µM.

Turning to `O=[C@](OCC2=C(F)C(F)=CC(F)=C2F)[C@H]1C(C)(C)[C@@H]1/C=C(Cl)/Cl`, the IC50 was over 46 µM.

Turning to `NCc1cccnc1`, the IC50 is over 46 µM.

The compound `O=C(O)C1CCCN1` (centres undefined) had an IC50 of over 46 µM.

In turn, `O=C(O)Cc1nn(Cc2ccc(Br)cc2F)c(=O)c2ccccc12` had an IC50 of over 46 µM.

`CCCc1nc(C(C)(C)O)c(C(=O)OCc2oc(=O)oc2C)n1Cc1ccc(-c2ccccc2-c2nnn[nH]2)cc1` came in with a 50% inhibitory concentration (IC50) of over 46 µM.

On to `Cl.N=C(N)NC(=N)NCCc1ccccc1`, for which the IC50 is over 46 µM.

Consider `CCCCCCCCCCCCCCCC(=O)NCCO`, for which the IC50 was over 46 µM.

`C[C@H](N)C(=O)N[C@@H](C)P(=O)(O)O`: the IC50 was over 46 µM.

In the case of `CC(C)[N+](C)(CCOC(=O)C1c2ccccc2Oc2ccccc21)C(C)C.[Br-]`, the IC50 was over 46 µM.

For `CN[C@@H]1[C@H](O)[C@H](NC)[C@H]2O[C@@]3(O)C(=O)C[C@@H](C)O[C@H]3O[C@@H]2[C@H]1O.Cl.Cl`, the IC50 was over 46 µM.

In turn, `CC(=O)Nc1ccc(CC(=O)O)cc1` registered an IC50 of over 46 µM.

In turn, `CC(C)CCCC(C)CCCC(C)CCCCC(C)CCCC(C)CCCC(C)C` (centres undefined) displayed an IC50 of over 46 µM.

Compound `C=C[C@H]1C[N@@]2CC[C@H]1C[C@H]2[C@H](OC(=O)OCC)c1ccnc2ccc(OC)cc12` gave an IC50 of over 46 µM.

Compound `CO[C@H]1O[C@@H]2O[C@@]3(C)CC[C@H]4[C@H](C)CC[C@@H]([C@H]1C)[C@@]24OO3` had an IC50 of over 46 µM.

With `O=C(C3)C(C(O)=CC(O[C@H]4[C@H](O)[C@@H](O)[C@H](O)[C@@H](CO[C@H]5[C@H](O)[C@H](O)[C@@H](O)[C@H](C)O5)O4)=C2)=C2O[C@@H]3[C@@]1=CC(O)=C(OC)C=C1`, the IC50 was over 46 µM.

Consider `NCC1CCC(C(=O)O)CC1` (centres undefined), for which the IC50 is over 46 µM.

On to `Cl.O=c1n(CCCN2CCN(c3cccc(Cl)c3)CC2)nc2ccccn12`, for which the IC50 is over 46 µM.

Turning to `O=CCCCC=O`, the IC50 is over 46 µM.

`O=C(CCN1CCN2CCCC2C1)N1c2ccccc2Sc2ccc(Cl)cc21` (centres undefined) returned an IC50 of over 46 µM.

For `CC(=O)N[C@@H](CCC(=O)O)C(=O)O`, the IC50 is over 46 µM.

`COc1ccc(C(=O)NCc2ccc(OCCN(C)C)cc2)cc1OC.Cl` yielded an IC50 of over 46 µM.

As to `N[C@@H](COP(=O)(O)O)C(=O)O`, the IC50 is over 46 µM.

On to `O=C2N1[C@]([C@@]([H])2NC(CC3=CC=CC=C3)=O)([H])SC(C)(C)[C@@H]1[C@@]([O-])=O.[K+]`, for which the IC50 is over 46 µM.

For `CCCCCCCCCCCCCCCCCC(=O)OC[C@@H](O)[C@H]1OC[C@H](O)[C@H]1O`, the IC50 was over 46 µM.

The compound `O=P([O-])(O)C(Cl)(Cl)P(=O)([O-])O.[Na+].[Na+]` displayed an IC50 of over 46 µM.

On to `CCN(CC)CCNC(=O)COc1ccc(OC)cc1.Cl`, for which the IC50 was over 46 µM.

The compound `NCC1(CC(=O)O)CCCCC1` showed an IC50 of over 46 µM.

As to `CCCCCCCCCCCCCCCCCC[N+](C)(C)CCC[Si](OC)(OC)OC.[Cl-]`, the IC50 is over 46 µM.

For `[C@@]2\1(\C(=C/C(/C=C/1)=O)[C@H](C[C@@H]4[C@@H]2[C@H](C[C@@]3([C@](C(COC(=O)C)=O)(O)CC[C@H]34)C)O)C)C`, the IC50 is over 46 µM.

The compound `Nc1ccc(S(=O)(=O)Nc2nccs2)cc1` returned an IC50 of over 46 µM.

In turn, `F[C@]2([C@](C)3CC4)[C@@H](O)C[C@]1(C)[C@@](OC(C)=O)([C@@](C)=O)CC[C@]([H])1[C@@]([H])2CCC3=CC4=O` returned an IC50 of over 46 µM.

`CC1=C(O[C@H](CCNC)[C@@]2=CC=CC=C2)C=CC=C1.Cl` registered an IC50 of over 46 µM.

`Cn1nnc2c(C(N)=O)ncn2c1=O` had a 50% inhibitory concentration (IC50) of over 46 µM.

Turning to `Clc1ccccc1CN1CCc2sccc2C1`, the IC50 is over 46 µM.
